Laboratory results as given in patent US20250152604A1, “CONTRACEPTIVE METHODS WITH SCHEDULED BLEEDING EFFECTS” (ESTETRA SRL, priority 2022, published 2025).

Assay: Solubility description
Assay type: physicochemical
Conditions: for solubility in water: water (and aqueous solutions)

SMILES | solubility in acetone (acetone) | solubility in acetonitrile (acetonitrile) | solubility in ethanol (ethanol) | solubility in ethyl acetate (ethyl acetate) | solubility in methanol (methanol) | solubility in water
C[C@]12CC[C@@H]3c4ccc(O)cc4CC[C@H]3[C@@H]1[C@@H](O)[C@@H](O)C2O (stereo in doubt) [Estetrol monohydrate, estra-1,3,5 (10)-triene-3,15α, 16α, 17α-tetrol monohydrate] | sparingly soluble | slightly soluble | soluble | slightly soluble | soluble | poorly soluble
C[C@]12CCC(=O)C=C1[C@@H]1C[C@@H]1[C@H]1[C@@H]3[C@@H]4C[C@@H]4[C@@]4(CCC(=O)O4)[C@@]3(C)CC[C@@H]12 [Drospirenone, reference compound] | – | – | – | – | – | slight solubility
